Source: ChEMBL document CHEMBL5393457, “Combined inhibition of amino acid transporters for inhibiting human plasmacytoid dendritic cell activity during autoimmunity” (2022)
Calls of active or inactive are those of the source.

How the values were obtained:
[1] = molecular target: Tyrosine-protein kinase JAK2 (Homo sapiens) (UniProt O60674); experiment: Inhibition of JAK2 in CpG-A-activated human plasmacytoid dendritic cells at 100 uM assessed as decrease in TNF production in presence of 25 to 100 uM baricitinib; type: cell-based; details: Plasmacytoid dendritic cell
Sequence of Tyrosine-protein kinase JAK2 (Homo sapiens) (O60674 whole entry): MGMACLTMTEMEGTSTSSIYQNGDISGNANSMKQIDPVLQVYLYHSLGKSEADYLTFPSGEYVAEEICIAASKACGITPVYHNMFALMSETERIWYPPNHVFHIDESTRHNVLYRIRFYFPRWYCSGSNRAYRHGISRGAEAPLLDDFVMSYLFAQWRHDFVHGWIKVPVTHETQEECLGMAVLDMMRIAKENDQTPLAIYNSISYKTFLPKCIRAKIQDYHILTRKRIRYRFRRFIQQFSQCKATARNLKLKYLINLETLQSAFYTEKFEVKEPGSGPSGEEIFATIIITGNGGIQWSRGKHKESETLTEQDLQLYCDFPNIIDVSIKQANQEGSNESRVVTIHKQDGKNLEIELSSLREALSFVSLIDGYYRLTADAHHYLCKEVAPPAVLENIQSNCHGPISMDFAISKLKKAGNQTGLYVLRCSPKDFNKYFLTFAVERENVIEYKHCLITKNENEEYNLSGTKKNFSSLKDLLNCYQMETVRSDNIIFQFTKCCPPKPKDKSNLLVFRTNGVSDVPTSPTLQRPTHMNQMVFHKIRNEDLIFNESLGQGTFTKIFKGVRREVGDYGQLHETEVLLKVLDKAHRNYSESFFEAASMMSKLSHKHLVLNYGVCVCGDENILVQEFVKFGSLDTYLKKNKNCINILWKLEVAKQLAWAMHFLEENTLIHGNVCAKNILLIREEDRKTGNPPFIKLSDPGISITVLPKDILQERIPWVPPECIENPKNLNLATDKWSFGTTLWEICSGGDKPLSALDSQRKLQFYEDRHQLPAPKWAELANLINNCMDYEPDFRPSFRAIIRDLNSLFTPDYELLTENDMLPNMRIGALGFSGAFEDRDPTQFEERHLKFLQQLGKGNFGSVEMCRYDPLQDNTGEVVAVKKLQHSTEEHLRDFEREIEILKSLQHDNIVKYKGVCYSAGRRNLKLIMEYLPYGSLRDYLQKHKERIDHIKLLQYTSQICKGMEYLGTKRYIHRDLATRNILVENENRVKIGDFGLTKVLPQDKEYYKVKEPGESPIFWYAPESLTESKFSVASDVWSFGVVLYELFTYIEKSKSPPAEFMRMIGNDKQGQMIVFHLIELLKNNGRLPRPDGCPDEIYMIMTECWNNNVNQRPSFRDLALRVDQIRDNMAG

[2] = molecular target: T1, Cystine/glutamate transporter (Homo sapiens) (UniProt Q9UPY5); experiment: Inhibition of XCT in IL-3 and CpG-A-stimulated human plasmacytoid dendritic cells at 100 uM assessed as decrease in TNF production in presence of 1 to 2 uM AC-4-130; type: cell-based; details: Plasmacytoid dendritic cell
T1 sequence (whole entry): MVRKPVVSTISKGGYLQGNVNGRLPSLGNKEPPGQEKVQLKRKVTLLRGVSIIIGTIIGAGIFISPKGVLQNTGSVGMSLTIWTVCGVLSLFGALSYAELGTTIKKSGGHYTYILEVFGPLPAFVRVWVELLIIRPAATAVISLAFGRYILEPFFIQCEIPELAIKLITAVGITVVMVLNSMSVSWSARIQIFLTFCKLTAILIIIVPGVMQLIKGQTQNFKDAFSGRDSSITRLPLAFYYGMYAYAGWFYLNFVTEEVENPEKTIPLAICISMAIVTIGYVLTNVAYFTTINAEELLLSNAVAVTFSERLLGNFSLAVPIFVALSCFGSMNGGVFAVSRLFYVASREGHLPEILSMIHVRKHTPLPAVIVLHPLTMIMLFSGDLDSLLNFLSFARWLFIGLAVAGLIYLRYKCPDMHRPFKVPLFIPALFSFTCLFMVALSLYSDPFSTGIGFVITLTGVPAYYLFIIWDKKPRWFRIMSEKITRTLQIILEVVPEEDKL

[3] = molecular target: T1, Cystine/glutamate transporter (Homo sapiens); experiment: Inhibition of XCT in IL-3 and CpG-A-stimulated human plasmacytoid dendritic cells at 100 uM assessed as decrease in TNF production in presence of 10 to 50 nM IQDMA; type: cell-based; details: Plasmacytoid dendritic cell
[4] = molecular target: T1, Cystine/glutamate transporter (Homo sapiens); experiment: Inhibition of XCT in CpG-A-activated human plasmacytoid dendritic cells at 200 uM assessed as decrease in ENPP2 expression; type: cell-based; details: Plasmacytoid dendritic cell
[5] = molecular target: T1, Cystine/glutamate transporter (Homo sapiens); experiment: Inhibition of XCT in IL-3 and CpG-A-stimulated human plasmacytoid dendritic cells assessed as decrease in IFN-alpha production in presence of mavrilimumab; type: cell-based; details: Plasmacytoid dendritic cell
[6] = molecular target: T1, Cystine/glutamate transporter (Homo sapiens); experiment: Inhibition of XCT in CpG-A-activated human plasmacytoid dendritic cells at 100 uM assessed as decrease in IFN-alpha production in presence of 25 to 100 uM baricitinib; type: cell-based; details: Plasmacytoid dendritic cell
[7] = molecular target: T1, Cystine/glutamate transporter (Homo sapiens); experiment: Inhibition of XCT in CpG-A-activated human plasmacytoid dendritic cells at 200 uM assessed as decrease in MYO1E expression; type: cell-based; details: Plasmacytoid dendritic cell
[8] = molecular target: T1, Cystine/glutamate transporter (Homo sapiens); experiment: Inhibition of XCT in IL-3 CpG-A-activated human plasma at 100 uM assessed as decrease in pDC activation in presence of 0.1 uM baricitinib
[9] = molecular target: T1, Cystine/glutamate transporter (Homo sapiens); experiment: Inhibition of XCT in IL-3 CpG-A-activated human plasma at 200 uM assessed as decrease in pDC activation
[10] = molecular target: T1, Cystine/glutamate transporter (Homo sapiens); experiment: Inhibition of XCT in IL-3 and CpG-A-stimulated human plasmacytoid dendritic cells at 100 uM assessed as decrease in IFN-alpha production in presence of 0.2 to 5 ug/ml IGN523; type: cell-based; details: Plasmacytoid dendritic cell
[11] = molecular target: T1, Cystine/glutamate transporter (Homo sapiens); experiment: Inhibition of XCT in IL-3 and CpG-A-stimulated human plasmacytoid dendritic cells at 100 uM assessed as decrease in IFN-alpha production in presence of 1 to 2 uM JPH203; type: cell-based; details: Plasmacytoid dendritic cell
[12] = molecular target: T1, Cystine/glutamate transporter (Homo sapiens); experiment: Inhibition of XCT in CpG-A-activated human plasmacytoid dendritic cells at 200 uM assessed as decrease in TNF production; type: cell-based; details: Plasmacytoid dendritic cell
[13] = molecular target: T1, Cystine/glutamate transporter (Homo sapiens); experiment: Inhibition of XCT in IL-3 and CpG-A-stimulated human plasmacytoid dendritic cells at 100 uM assessed as decrease in IFN-alpha production in presence of 1 to 2 uM pimozide; type: cell-based; details: Plasmacytoid dendritic cell
[14] = molecular target: T1, Cystine/glutamate transporter (Homo sapiens); experiment: Inhibition of XCT in IL-3 and CpG-A-stimulated human plasmacytoid dendritic cells at 100 uM assessed as decrease in TNF production in presence of 1 to 2 uM pimozide; type: cell-based; details: Plasmacytoid dendritic cell
[15] = molecular target: T1, Cystine/glutamate transporter (Homo sapiens); experiment: Inhibition of XCT in CpG-A-activated human plasmacytoid dendritic cells at 200 uM assessed as decrease in S6 phosphorylation; type: cell-based; details: Plasmacytoid dendritic cell
[16] = molecular target: T1, Cystine/glutamate transporter (Homo sapiens); experiment: Inhibition of XCT in IL-3 and CpG-A-stimulated human plasmacytoid dendritic cells assessed as decrease in TNF production in presence of mavrilimumab; type: cell-based; details: Plasmacytoid dendritic cell
[17] = molecular target: T1, Cystine/glutamate transporter (Homo sapiens); experiment: Inhibition of XCT in CpG-A-activated human plasmacytoid dendritic cells at 200 uM assessed as decrease in kynurenine uptake; type: cell-based; details: Plasmacytoid dendritic cell
[18] = molecular target: T1, Cystine/glutamate transporter (Homo sapiens); experiment: Inhibition of XCT in CpG-A-activated human plasmacytoid dendritic cells at 200 uM assessed as decrease in IFN-alpha production; type: cell-based; details: Plasmacytoid dendritic cell
[19] = molecular target: T1, Cystine/glutamate transporter (Homo sapiens); experiment: Inhibition of XCT in IL-3 and CpG-A-stimulated human plasmacytoid dendritic cells at 100 uM assessed as decrease in IFN-alpha production in presence of 10 to 50 nM IQDMA; type: cell-based; details: Plasmacytoid dendritic cell
[20] = molecular target: T1, Cystine/glutamate transporter (Homo sapiens); experiment: Inhibition of XCT in IL-3 and CpG-A-stimulated human plasmacytoid dendritic cells at 100 uM assessed as decrease in IFN-alpha production in presence of 1 to 2 uM AC-4-130; type: cell-based; details: Plasmacytoid dendritic cell
[21] = molecular target: T1, Cystine/glutamate transporter (Homo sapiens); experiment: Inhibition of XCT in IL-3 and CpG-A-stimulated human plasmacytoid dendritic cells at 100 uM assessed as decrease in TNF production in presence of 1 to 2 uM JPH203; type: cell-based; details: Plasmacytoid dendritic cell
[22] = molecular target: T1, Cystine/glutamate transporter (Homo sapiens); experiment: Inhibition of XCT in IL-3 and CpG-A-stimulated human plasmacytoid dendritic cells at 100 uM assessed as decrease in TNF production in presence of 0.2 to 5 ug/ml IGN523; type: cell-based; details: Plasmacytoid dendritic cell
[23] = molecular target: T2, Janus Kinase (JAK) (Homo sapiens) (UniProt P52333+P23458+O60674+P29597); experiment: Inhibition of JAK in IL-3 and CpG-A-stimulated human plasmacytoid dendritic cells at 0.2 to 20 uM assessed as decrease in IFN-alpha production; type: cell-based; details: Plasmacytoid dendritic cell, dose 0.2-20 µM
[24] = molecular target: T2, Janus Kinase (JAK) (Homo sapiens); experiment: Inhibition of JAK in IL-3 and CpG-A-stimulated human plasmacytoid dendritic cells at 0.2 to 20 uM assessed as decrease in TNF production; type: cell-based; details: Plasmacytoid dendritic cell, dose 0.2-20 µM
[25] = tested on: Plasmacytoid dendritic cell; experiment: Inhibition of SLC7A5/SLC3A2 in IL-3 and CpG-A-stimulated human plasmacytoid dendritic cells at 1 to 2 uM assessed as decrease in TNF production in presence of 100 uM sulfasalazine; type: cell-based; details: dose 1-2 µM
[26] = tested on: Plasmacytoid dendritic cell; experiment: Inhibition of SLC7A5/SLC3A2 in IL-3 and CpG-A-stimulated human plasmacytoid dendritic cells at 1 to 2 uM assessed as decrease in IFN-alpha production in presence of 100 uM sulfasalazine; type: cell-based; details: dose 1-2 µM
[27] = molecular target: Large neutral amino acids transporter small subunit 1 (Homo sapiens) (UniProt Q01650); experiment: Inhibition of SLC7A5 in CpG-A-stimulated human plasmacytoid dendritic cells at 5 to 10 uM assessed as decrease in TNF production; type: cell-based; details: Plasmacytoid dendritic cell, dose 5-10 µM
Sequence of Large neutral amino acids transporter small subunit 1 (Homo sapiens) (Q01650 whole entry): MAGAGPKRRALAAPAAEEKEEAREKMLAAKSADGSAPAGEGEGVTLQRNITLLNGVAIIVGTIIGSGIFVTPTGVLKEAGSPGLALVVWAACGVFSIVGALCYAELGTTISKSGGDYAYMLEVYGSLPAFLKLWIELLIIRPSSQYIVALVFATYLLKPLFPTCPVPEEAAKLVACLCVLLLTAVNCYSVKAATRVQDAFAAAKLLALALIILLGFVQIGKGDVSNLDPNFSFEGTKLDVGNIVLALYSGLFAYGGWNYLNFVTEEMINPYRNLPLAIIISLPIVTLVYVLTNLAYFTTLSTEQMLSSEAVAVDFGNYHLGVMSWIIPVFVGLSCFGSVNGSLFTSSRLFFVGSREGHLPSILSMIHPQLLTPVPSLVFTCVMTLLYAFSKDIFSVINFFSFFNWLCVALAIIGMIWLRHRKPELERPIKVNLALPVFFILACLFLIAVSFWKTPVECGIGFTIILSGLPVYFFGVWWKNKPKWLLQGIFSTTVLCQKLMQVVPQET

[28] = molecular target: Large neutral amino acids transporter small subunit 1 (Homo sapiens) (UniProt Q01650); experiment: Inhibition of SLC7A5 in CpG-A-stimulated human plasmacytoid dendritic cells at 5 to 10 uM assessed as decrease in kynurenine transport; type: cell-based; details: Plasmacytoid dendritic cell, dose 5-10 µM
[29] = molecular target: Large neutral amino acids transporter small subunit 1 (Homo sapiens) (UniProt Q01650); experiment: Inhibition of SLC7A5 in CpG-A-stimulated human plasmacytoid dendritic cells at 5 to 10 uM assessed as decrease in pS6 levels; type: cell-based; details: Plasmacytoid dendritic cell, dose 5-10 µM
[30] = molecular target: Large neutral amino acids transporter small subunit 1 (Homo sapiens) (UniProt Q01650); experiment: Inhibition of SLC7A5 in CpG-A-stimulated human plasmacytoid dendritic cells at 5 to 10 uM assessed as decrease in IFN-alpha production; type: cell-based; details: Plasmacytoid dendritic cell, dose 5-10 µM

Measured: inhibition

O=C(O)c1cc(/N=N/c2ccc(S(=O)(=O)Nc3ccccn3)cc2)ccc1O
not listed: [23] | [24] | [25] | [26] | [27] | [28] | [29] | [30]
active: all other assays above

CN(Cc1cnc2nc(N)nc(N)c2n1)c1ccc(C(=O)N[C@@H](CCC(=O)O)C(=O)O)cc1
active: [23] | [24]

Nc1cc(COc2c(Cl)cc(C[C@H](N)C(=O)O)cc2Cl)c2oc(-c3ccccc3)nc2c1
active: [25] | [26] | [27] | [28] | [29] | [30]
